Reference: patent publication US9725460B2, “Oridonin analogs, compositions, and methods related thereto” (THE BOARD OF REGENTS OF THE UNIVERSITY OF TEXAS SYSTEM, priority 2013, dated 2017)
Where two headings read alike, the source gives them in different places.

Tests used:
AsPC1 = test: Cancer cell proliferation assay, AsPC1; format: cell-based; settings: Homo sapiens, ASPC1
Protocol: (§1) In Vitro Determination of Effects of Synthesized Diterpenoids on Cancer Cell Proliferation. […] Then MTT solution was removed, and 150 μL of DMSO was added to each well. Absorbance of all wells was determined by measuring OD at 550 nm after a 10 min incubation on a 96-well GlowMaxate absorbance reader (Promega, Madison, Wis.). Each individual compound was tested in quadruplicate wells for each concentration.

Panc-1 = test: Cancer cell proliferation assay, Panc-1; format: cell-based; settings: Homo sapiens, PANC-1
Protocol: as §1

MDA-MB-231 = test: MTT cancer cell proliferation assay, MDA-MB-231; format: cell-based, human
Protocol: (§2) In Vitro Determination of Effects of Synthesized Diterpenoids on Cancer Cell Proliferation. Breast cancer cell lines MCF-7, MDA-MB-231, […] and MCF/ADR were seeded in 96-well plates at a density of 1×10^4 cells/well and treated with DMSO and 0.01, 0.1, 1, 5, 10, and 100 μM of individual compound for 48 h, and then 20 μL of 3-(4,5-dimethylthiazol-2-yl)-2,5-diphenyltetrazolium bromide (MTT) (5 mg/mL in PBS) was added to each well and further incubated for another 4 h. Then MTT solution was removed, and 150 μL of DMSO was added to each well. Absorbance of all wells was determined by measuring OD at 550 nm after a 10 min incubation on a 96-well GlowMaxate absorbance reader (Promega, Madison, Wis.). Each individual compound was tested in quadruplicate wells for each concentration.
(§3) The growth inhibitory effects of the newly generated pyran-fused diterpenoids were evaluated in four breast cancer cell lines MCF-7 (ER-positive), MDAMB-231 (ER-negative and triple-negative), MDA-MB-468 (ER-negative and triple-negative) as well as MCF-7/ADR (adriamycin-resistant) using MTT assays as described in the Experimental Section.

DU145 = test: Cancer cell proliferation assay, DU145; format: cell-based; settings: Homo sapiens, DU-145
MCF-7 = test: MTT cancer cell proliferation assay, MCF-7; format: cell-based, human
Protocol: as §2, §3

MDA-MB-468 = test: MTT cancer cell proliferation assay, MDA-MB-468; format: cell-based, human; settings: Table 3, pyran-fused diterpenoids, MTT 48 h, mean ± SE of three experiments
Protocol: as §2
as §3, with “Section. The capability of these new molecules to inhibit the growth of cancer cells was summarized in Table 3 and compared with that of adriamycin and 1 spontaneously.” for “Section.”

MCF-7/ADR = test: MTT growth inhibition, drug-resistant MCF-7/ADR; format: cell-based, human; settings: Table 3, adriamycin-resistant, MTT 48 h, mean ± SE of three experiments
Protocol: as §2
as §3, with “Section. The capability of these new molecules to inhibit the growth of cancer cells was summarized in Table 3 and compared with that of adriamycin and 1 spontaneously.” for “Section.”

[1] = Table 1a, pancreatic cancer, read-out: IC50 (μM) AsPC1
[2] = Table 2b, mean of at least three experiments, read-out: Effect on proliferation AsPC1 (IC50)
[3] = Table 1a, pancreatic cancer, read-out: IC50 (μM) Panc-1
[4] = Table 2b, mean of at least three experiments, read-out: Effect on proliferation Panc-1 (IC50)
[5] = Homo sapiens, MDA-MB-231, Table 1a, breast cancer, read-out: IC50 (μM) MDA-MB-231
[6] = Homo sapiens, MDA-MB-231, Table 2b, mean of at least three experiments, read-out: Effect on proliferation MDA-MB-231 (ER negative) (IC50)
[7] = Table 1a, prostate cancer, read-out: IC50 (μM) DU145
[8] = Table 2b, mean of at least three experiments, read-out: Effect on proliferation DU145 (IC50)
[9] = Homo sapiens, MCF7, Table 1a, breast cancer, read-out: IC50 (μM) MCF-7
[10] = Homo sapiens, MCF7, Table 2b, mean of at least three experiments, read-out: Effect on proliferation MCF-7 (ER positive) (IC50)
[11] = Homo sapiens, MDA-MB-231, 48 h, Table 3, pyran-fused diterpenoids, MTT 48 h, mean ± SE of three experiments, read-out: IC50 (μM) MDA-MB-231
[12] = Homo sapiens, NCI/ADR-RES, 48 h
[13] = Homo sapiens, MCF7, 48 h, Table 3, pyran-fused diterpenoids, MTT 48 h, mean ± SE of three experiments, read-out: IC50 (μM) MCF-7

| IC50 (MDA-MB-468; Homo sapiens, MDA-MB-468, 48 h) | IC50 (MDA-MB-231; [11]) | IC50 (MCF-7/ADR; [12]) | IC50 (MCF-7; [13]) | Compound | other results |
| --- | --- | --- | --- | --- | --- |
|  |  |  |  | C=C1C(=O)[C@@]23C(CC[C@H]1[C@H]2O)[C@@]12CO[C@]3(O)[C@@H](O)C1C(C)(C)Cc1sc(N3CCCCCC3)nc12 (stereo partly drawn) [CYD-6-26-2, (6S,7S,7aR,10R,12bR,15R)-2-(azepan-1-yl)-6,7,15-trihydroxy-5,5-dimethyl-9-methylene-5,5a,6,7,10,11,12,12a-octahydro-4H-7,12b-(epoxymethano)-7a,10-methanocyclohepta[7,8]naphtho[1,2-d]thiazol-8(9H)-one] | IC50 (AsPC1; [1]): 2.3 µM; IC50 (AsPC1; [2]): 2.3 µM; IC50 (Panc-1; [3]): 6.29 µM; IC50 (Panc-1; [4]): 6.3 µM; IC50 (MDA-MB-231; [5]): 6.82 µM; IC50 (MDA-MB-231; [6]): 6.8 µM; IC50 (DU145; [7]): 4.74 µM; IC50 (DU145; [8]): 4.7 µM; IC50 (MCF-7; [9]): 1.15 µM; IC50 (MCF-7; [10]): 1.2 µM |
| 5.81 ± 1.92 µM | 3.73 ± 0.28 µM | 6.79 ± 3.46 µM | 2.41 ± 1.86 µM | C=C1C(=O)[C@@]23[C@@H]4OC(C)(C)O[C@@]25OC[C@]2(C6=C(CC[C@H](OCC)O6)CC(C)(C)[C@H]2[C@@H]5O)[C@@H]3CC[C@@H]14 [CYD-8-69-2] |  |
| 2.83 ± 0.42 µM | 2.87 ± 0.54 µM | 3.82 ± 0.47 µM | 2.3 ± 1.4 µM | C=C1C(=O)[C@@]23[C@@H]4OC(C)(C)O[C@@]25OC[C@]2(C6=C(CC[C@@H](SCC)O6)CC(C)(C)[C@H]2[C@@H]5O)[C@@H]3CC[C@@H]14 [CYD-8-84] |  |
| 2.65 ± 0.14 µM | 3.18 ± 0.24 µM | 4.51 ± 1.54 µM | 2.14 ± 1.11 µM | C=C1C(=O)[C@@]23[C@@H]4OC(C)(C)O[C@@]25OC[C@]2(C6=C(CC[C@H](OCCCCO)O6)CC(C)(C)[C@H]2[C@@H]5O)[C@@H]3CC[C@@H]14 [CYD-8-67-1] |  |
| 7.26 ± 0.23 µM | 7.15 ± 1.27 µM | 8.74 ± 0.27 µM | 6.76 ± 3.43 µM | C=C1C(=O)[C@@]23[C@@H]4OC(C)(C)O[C@@]25OC[C@]2(C6=C(CC[C@@H](OCCCl)O6)CC(C)(C)[C@H]2[C@@H]5O)[C@@H]3CC[C@@H]14 [CYD-8-65-2] |  |
| 4.37 ± 1.48 µM | 3.3 ± 0.23 µM | 3.19 ± 0.54 µM | 2.1 ± 0.98 µM | C=CCO[C@@H]1CCC2=C(O1)[C@@]13CO[C@@]4(OC(C)(C)O[C@@H]5[C@H]6CC[C@@H]1[C@]54C(=O)C6=C)[C@@H](O)[C@@H]3C(C)(C)C2 [CYD-8-66-2] |  |
|  |  |  |  | C=C1C(=O)[C@@]23C(CC[C@H]1[C@H]2O)[C@@]12CO[C@]3(O)[C@@H](O)C1C(C)(C)Cc1sc(NC(C)=O)nc12 (stereo partly drawn) [CYD-6-21, N-((6S,7S,7aR,10R,12bR,15R)-6,7,15-trihydroxy-5,5-dimethyl-9-methylene-8-oxo-5,5a,6,7,8,9,10,11,12,12a-decahydro-4H-7,12b-(epoxymethano)-7a,10-methanocyclohepta[7,8]naphtho[1,2-d]thiazol-2-yl)acetamide] | IC50 (AsPC1; [1]): 4.83 µM; IC50 (AsPC1; [2]): 4.8 µM; IC50 (Panc-1; [3]): 6.71 µM; IC50 (Panc-1; [4]): 6.7 µM; IC50 (MDA-MB-231; [5]): 6.82 µM; IC50 (MDA-MB-231; [6]): 6.8 µM; IC50 (DU145; [7]): 6.34 µM; IC50 (DU145; [8]): 6.3 µM; IC50 (MCF-7; [9]): 1.99 µM; IC50 (MCF-7; [10]): 2 µM |
| 6.95 ± 1.01 µM | 8.18 ± 0.57 µM | 10.3 ± 1.65 µM | 5.83 ± 3.75 µM | C=C1C(=O)[C@@]23[C@@H]4OC(C)(C)O[C@@]25OC[C@]2(C6=C(CC[C@@H](OCC(C)C)O6)CC(C)(C)[C@H]2[C@@H]5O)[C@@H]3CC[C@@H]14 [CYD-8-52-2] |  |
| 2.98 ± 0.67 µM | 2.23 ± 0.39 µM | 3.8 ± 1.15 µM | 2.41 ± 1.45 µM | C=C1C(=O)[C@@]23[C@@H]4OC(C)(C)OC25OC[C@]2(C6=C(CC[C@H](OCCCC)O6)CC(C)(C)[C@H]2[C@@H]5O)[C@@H]3CC[C@@H]14 [CYD-8-69-1] |  |
| 2.62 ± 0.08 µM | 1.76 ± 0.22 µM | 4.42 ± 0.9 µM | 2.24 ± 1.33 µM | C=C1C(=O)[C@@]23[C@@H]4OC(C)(C)O[C@@]25OC[C@]2(C6=C(CC[C@H](OCC(C)C)O6)CC(C)(C)[C@H]2[C@@H]5O)[C@@H]3CC[C@@H]14 [CYD-8-52-1] |  |
| 2.99 ± 1.01 µM | 3.3 ± 1.81 µM | 3.08 ± 1.12 µM | 2.31 ± 1.02 µM | C=C1C(=O)[C@@]23[C@@H]4OC(C)(C)O[C@@]25OC[C@]2(C6=C(CC[C@H](OCCCl)O6)CC(C)(C)[C@H]2[C@@H]5O)[C@@H]3CC[C@@H]14 [CYD-8-65-1] |  |
| 0.65 ± 0.26 µM | 2.33 ± 0.22 µM | > 10 µM | 0.67 ± 0.45 µM | COc1cccc2c1C(=O)c1c(O)c3c(c(O)c1C2=O)C[C@@](O)(C(=O)CO)C[C@@H]3O[C@H]1C[C@H](N)[C@H](O)[C@H](C)O1 [Adriamycin, reference compound] |  |
| 2.24 ± 0.68 µM | 3.32 ± 1.01 µM | 3.18 ± 0.89 µM | 1.9 ± 0.97 µM | C=C1C(=O)[C@]23[C@H](O)[C@H]1CC[C@H]2[C@@]12CO[C@@]3(O)[C@@H](O)[C@@H]1C(C)(C)CC1=C2O[C@@H](OCC)CC1 [CYD-8-50] |  |
| 3.33 ± 0.58 µM | 2.53 ± 0.77 µM | 2.89 ± 0.32 µM | 2.39 ± 0.78 µM | C=C1C(=O)[C@@]23[C@@H]4OC(C)(C)O[C@@]25OC[C@]2(C6=C(C[C@H]7CCCO[C@H]7O6)CC(C)(C)[C@H]2[C@@H]5O)[C@@H]3CC[C@@H]14 [CYD-8-74-2] |  |
| 4.89 ± 0.85 µM | 7.12 ± 0.22 µM | 4.31 ± 2.43 µM | 4.32 ± 1.82 µM | C=CCO[C@H]1CCC2=C(O1)[C@@]13CO[C@@]4(OC(C)(C)O[C@@H]5[C@H]6CC[C@@H]1[C@]54C(=O)C6=C)[C@@H](O)[C@@H]3C(C)(C)C2 [CYD-8-66-1] |  |
|  |  |  |  | C=C1C(=O)[C@@]23[C@@H]4OC(C)(C)O[C@@]25OC[C@]2(C6=C(CC[C@@H](OCC)O6)CC(C)(C)[C@H]2[C@@H]5O)[C@@H]3CC[C@@H]14 [CYD-8-45-2] | IC50 (MDA-MB-468): 0.52 ± 0.18 µM; IC50 (MDA-MB-231; Table 3, pyran-fused diterpenoids, MTT 48 h, mean ± SE of three experiments, read-out: IC50 (μM) MDA-MB-231): 0.54 ± 0.14 µM; IC50 (MCF-7/ADR): 1.64 ± 0.72 µM; IC50 (MCF-7; Table 3, pyran-fused diterpenoids, MTT 48 h, mean ± SE of three experiments, read-out: IC50 (μM) MCF-7): 0.44 ± 0.27 µM |
|  |  |  |  | C=C1C(=O)[C@]23[C@H](O)[C@H]1CC[C@H]2[C@@]12CO[C@]3(O)[C@@H](O)[C@@H]1C(C)(C)Cc1sc(N)nc12 [CYD-5-41, (5aR,6S,7S,7aR,10S,12aS,12bR,15R)-2-amino-6,7,15-trihydroxy-5,5-dimethyl-9-methylene-5,5a,6,7,10,11,12,12a-octahydro-4H-7,12b-(epoxymethano)-7a,10-methanocyclohepta[7,8]naphtho[1,2-d]thiazol-8(9H)-one] | IC50 (AsPC1; [1]): 5.58 µM; IC50 (AsPC1; [2]): 5.6 µM; IC50 (Panc-1; [3]): 6.13 µM; IC50 (Panc-1; [4]): 6.1 µM; IC50 (MDA-MB-231; [5]): 3.24 µM; IC50 (MDA-MB-231; [6]): 3.2 µM; IC50 (DU145; [7]): 3.46 µM; IC50 (DU145; [8]): 3.5 µM; IC50 (MCF-7; [9]): 1.02 µM; IC50 (MCF-7; [10]): 1 µM |
| 5.96 ± 0.29 µM | 5.89 ± 2.04 µM | 5.34 ± 1.29 µM | 5.17 ± 2.9 µM | C=C1C(=O)[C@@]23[C@@H]4OC(C)(C)O[C@@]25OC[C@]2(C6=C(CC[C@@H](OCCCCO)O6)CC(C)(C)[C@H]2[C@@H]5O)[C@@H]3CC[C@@H]14 [CYD-8-67-2] |  |
| 6.63 ± 0.77 µM | 7.57 ± 0.44 µM | 8.6 ± 0.7 µM | 7.79 ± 3.18 µM | C=C1C(=O)[C@@]23[C@@H]4OC(C)(C)O[C@@]25OC[C@]2(C6=C(CC[C@H](OCCCN=[N+]=[N-])O6)CC(C)(C)[C@H]2[C@@H]5O)[C@@H]3CC[C@@H]14 [CYD-8-87] |  |
